Each structure is given as a SMILES string. Where two headings read alike, the source gives them in different places.

In one assay the target is human TLR9 (Homo sapiens (Human), UniProt Q9NR96). The assay can be described thus: TLR9 inhibition reporter assay (HEK-Blue cells, SEAP reporter, ODN2006 stimulation).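 Note: compounds tested over 0.05 nM to 50 µM, 22 h incubation, inhibition taken as SEAP signal drop from agonist plus DMSO wells toward a known inhibitor control.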 Background: In a reporter assay the amount or activity of a reporter protein is the signal.
In another assay the target is human TLR7 (Homo sapiens (Human), UniProt Q9NYK1). The assay can be described thus: TLR7 inhibition reporter assay (HEK-Blue cells, SEAP reporter, gardiquimod stimulation). It is filed as cell-based.
For another assay, the target named is human TLR8 (Homo sapiens (Human), UniProt Q9NR97). The assay can be described thus: TLR8 inhibition reporter assay (HEK-Blue cells, SEAP reporter, R848 stimulation).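 Note: compounds tested from 0.05 nM to 50 µM, 22 h at 37 °C, SEAP measured with HEK-Blue Detection, inhibition relative to agonist plus DMSO versus a known inhibitor.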
Where [1] appears, read: read-out: TLR9 IC50, HEK-Blue cells overexpressing human TLR9, ODN2006 5 nM.
[2] abbreviates: HEK-Blue cells overexpressing human TLR7, gardiquimod 7.5 μM.
Setting [3] is: read-out: TLR8 IC50, HEK-Blue cells overexpressing human TLR8, R848 15.9 μM.
Setting [4] is: read-out: TLR9 IC50, HEK-Blue cells, ODN2006 5 nM.
The mark [5] stands for this setting: HEK-Blue cells, gardiquimod 7.5 μM.
Where [6] appears, read: read-out: TLR8 IC50, HEK-Blue cells, R848 15.9 μM.
[7] abbreviates: TLR8 IC50, HEK-Blue cells overexpressing human TLR8, R848 15.9 μM.
The mark [8] stands for this setting: TLR9 IC50, HEK-Blue cells overexpressing human TLR9, ODN2006 5 nM.

Chain of human TLR7 (Q9NYK1 27-1049): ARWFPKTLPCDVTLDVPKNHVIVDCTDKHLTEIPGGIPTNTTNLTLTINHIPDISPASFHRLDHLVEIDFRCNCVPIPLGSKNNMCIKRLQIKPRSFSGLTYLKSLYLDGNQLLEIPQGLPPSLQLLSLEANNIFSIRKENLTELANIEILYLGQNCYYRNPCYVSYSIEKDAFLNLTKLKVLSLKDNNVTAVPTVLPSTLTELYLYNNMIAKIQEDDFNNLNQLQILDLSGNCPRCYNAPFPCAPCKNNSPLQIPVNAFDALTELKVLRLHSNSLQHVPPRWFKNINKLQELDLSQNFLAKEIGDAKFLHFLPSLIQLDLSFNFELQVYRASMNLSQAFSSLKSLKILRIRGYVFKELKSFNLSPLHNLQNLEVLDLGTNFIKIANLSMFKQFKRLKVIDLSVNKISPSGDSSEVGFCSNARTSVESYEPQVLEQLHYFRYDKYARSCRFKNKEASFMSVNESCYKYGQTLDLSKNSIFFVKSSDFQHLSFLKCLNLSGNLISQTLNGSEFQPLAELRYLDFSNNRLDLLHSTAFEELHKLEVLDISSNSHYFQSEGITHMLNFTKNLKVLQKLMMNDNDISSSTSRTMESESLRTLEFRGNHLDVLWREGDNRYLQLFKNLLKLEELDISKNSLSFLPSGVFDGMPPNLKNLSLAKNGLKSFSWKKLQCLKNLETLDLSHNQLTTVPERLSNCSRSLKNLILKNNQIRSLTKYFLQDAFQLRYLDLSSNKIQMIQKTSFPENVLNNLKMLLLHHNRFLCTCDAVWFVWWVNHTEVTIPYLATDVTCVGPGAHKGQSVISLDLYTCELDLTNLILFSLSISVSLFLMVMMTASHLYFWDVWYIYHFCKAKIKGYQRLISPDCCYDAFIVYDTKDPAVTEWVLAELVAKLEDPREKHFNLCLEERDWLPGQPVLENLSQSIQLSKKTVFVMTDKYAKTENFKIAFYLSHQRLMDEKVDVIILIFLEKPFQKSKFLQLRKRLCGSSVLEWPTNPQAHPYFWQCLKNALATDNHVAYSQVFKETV
Chain of human TLR8 (Q9NR97 27-1041): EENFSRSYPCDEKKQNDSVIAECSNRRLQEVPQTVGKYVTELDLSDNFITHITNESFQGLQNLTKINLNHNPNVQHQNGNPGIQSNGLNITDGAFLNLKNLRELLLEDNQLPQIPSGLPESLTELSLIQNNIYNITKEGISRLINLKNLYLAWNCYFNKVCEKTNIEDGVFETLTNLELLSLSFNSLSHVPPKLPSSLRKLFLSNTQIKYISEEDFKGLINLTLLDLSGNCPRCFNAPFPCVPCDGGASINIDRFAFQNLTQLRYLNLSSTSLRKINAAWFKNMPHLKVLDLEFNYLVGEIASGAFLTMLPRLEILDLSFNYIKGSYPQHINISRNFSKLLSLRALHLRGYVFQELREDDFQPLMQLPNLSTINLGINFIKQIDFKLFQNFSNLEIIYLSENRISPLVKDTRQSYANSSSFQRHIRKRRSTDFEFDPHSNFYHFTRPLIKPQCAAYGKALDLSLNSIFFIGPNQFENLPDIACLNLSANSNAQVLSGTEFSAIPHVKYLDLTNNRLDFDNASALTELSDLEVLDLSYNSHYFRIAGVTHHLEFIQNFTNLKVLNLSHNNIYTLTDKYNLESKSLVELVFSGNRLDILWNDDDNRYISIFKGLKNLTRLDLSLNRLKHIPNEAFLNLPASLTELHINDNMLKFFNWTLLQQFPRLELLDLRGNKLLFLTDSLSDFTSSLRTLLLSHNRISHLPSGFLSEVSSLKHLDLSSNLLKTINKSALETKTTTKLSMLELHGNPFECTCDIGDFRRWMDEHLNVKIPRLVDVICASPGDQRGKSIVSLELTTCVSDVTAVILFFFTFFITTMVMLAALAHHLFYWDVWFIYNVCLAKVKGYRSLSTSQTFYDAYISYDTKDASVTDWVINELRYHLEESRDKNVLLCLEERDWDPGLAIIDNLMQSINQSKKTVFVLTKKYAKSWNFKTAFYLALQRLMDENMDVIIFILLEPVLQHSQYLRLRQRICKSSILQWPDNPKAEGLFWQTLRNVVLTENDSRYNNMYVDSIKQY
Chain of human TLR9 (Q9NR96 26-1032): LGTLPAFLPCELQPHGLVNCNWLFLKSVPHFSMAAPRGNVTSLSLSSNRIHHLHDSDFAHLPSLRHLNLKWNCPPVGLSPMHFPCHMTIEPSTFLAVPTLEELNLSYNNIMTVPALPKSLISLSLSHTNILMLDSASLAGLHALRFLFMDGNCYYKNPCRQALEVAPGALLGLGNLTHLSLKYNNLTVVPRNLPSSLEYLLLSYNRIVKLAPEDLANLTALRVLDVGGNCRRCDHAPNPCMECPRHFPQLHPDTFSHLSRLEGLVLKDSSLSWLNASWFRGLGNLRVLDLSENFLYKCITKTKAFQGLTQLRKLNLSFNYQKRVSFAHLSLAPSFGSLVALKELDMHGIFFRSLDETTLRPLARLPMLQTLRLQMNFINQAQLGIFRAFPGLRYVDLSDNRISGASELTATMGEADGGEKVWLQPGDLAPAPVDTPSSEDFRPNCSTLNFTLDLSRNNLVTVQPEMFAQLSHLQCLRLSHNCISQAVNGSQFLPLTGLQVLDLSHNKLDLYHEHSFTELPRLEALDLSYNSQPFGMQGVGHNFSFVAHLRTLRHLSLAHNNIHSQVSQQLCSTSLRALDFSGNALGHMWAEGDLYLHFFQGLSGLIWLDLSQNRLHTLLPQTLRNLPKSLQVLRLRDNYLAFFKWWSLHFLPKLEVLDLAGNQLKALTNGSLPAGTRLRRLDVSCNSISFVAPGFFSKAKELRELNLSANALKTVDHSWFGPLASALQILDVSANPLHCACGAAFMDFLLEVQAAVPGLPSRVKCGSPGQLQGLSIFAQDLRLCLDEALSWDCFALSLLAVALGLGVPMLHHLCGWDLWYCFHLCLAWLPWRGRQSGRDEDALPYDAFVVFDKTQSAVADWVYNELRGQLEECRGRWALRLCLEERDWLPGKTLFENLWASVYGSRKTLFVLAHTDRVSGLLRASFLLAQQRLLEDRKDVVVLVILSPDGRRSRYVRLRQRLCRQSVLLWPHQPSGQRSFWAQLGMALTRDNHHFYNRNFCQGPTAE
Experimental for human TLR9: TLR7/8/9 Inhibition Reporter Assays
Briefly, cells are seeded into Greiner 384 well plates (15000 cells per well for TLR7, 20,000 for TLR8 and 25,000 for TLR9) and then treated with test compounds in DMSO to yield a final dose response concentration range of 0.05 nM-50 μM. […] After a 22 hour incubation at 37° C., 5% CO2, SEAP levels are determined with the addition of HEK-Blue™ Detection reagent (Invivogen), a cell culture medium that allows for detection of SEAP, according to manufacturer's specifications. The percent inhibition is determined as the % reduction in the HEK-Blue signal present in wells treated with agonist plus DMSO alone compared to wells treated with a known inhibitor.

For the compound `Cc1cc(-c2[nH]c3ccc(C4CCN(C(=O)CNC5CCOCC5)CC4)cc3c2C(C)C)cc(C)n1` [Example 386, 1-(4-(2-(2,6-dimethylpyridin-4-yl)-3-isopropyl-1H-indol-5-yl)piperidin-1-yl)-2-((tetrahydro-2H-pyran-4-yl)amino)ethan-1-one], the values for the IC50 at human TLR9 (setting [1]), against human TLR7 (setting [2]) and at human TLR8 (setting [3]) were 280 nM, 3.6 nM and 17.7 nM, respectively.
With `CNCCN1CCC(c2ccc3[nH]c(-c4ccnc(C)c4)c(C)c3c2)CC1` [Example 815, N-methyl-2-(4-(3-methyl-2-(2-methylpyridin-4-yl)-1H-indol-5-yl)piperidin-1-yl)ethan-1-amine], the results for the IC50 on human TLR9 (setting [4]), against human TLR7 (setting [5]) and on human TLR8 (setting [6]) were 313 nM, 124 nM and 73.4 nM, respectively.
On to `Cc1cc(-c2[nH]c3ccc(C4CCNCC4)cc3c2C(C)C)ccn1` [Example 5, 3-isopropyl-2-(2-methylpyridin-4-yl)-5-(piperidin-4-yl)-1H-indole], for which the IC50 – broadly, the concentration needed to halve the response being measured – at human TLR9 (setting [1]) was 946 nM; on human TLR7 (setting [2]), 6.1 nM; at human TLR8 (setting [3]), 3.9 nM.
In the case of `Cc1cc(-c2[nH]c3ccc(C4CCN(C(=O)c5ccc(C)n(C)c5=O)CC4)cc3c2C(C)C)cc(C)n1` [Example 138, 3-(4-(2-(2,6-dimethylpyridin-4-yl)-3-isopropyl-1H-indol-5-yl)piperidine-1-carbonyl)-1,6-dimethylpyridin-2(1H)-one], the IC50 on human TLR7 (setting [2]) was 7.6 nM; at human TLR8 (setting [3]) it was 108 nM.
Take `Cc1cc(-c2[nH]c3cc(F)c(C4CCN(C5COC5)CC4)cc3c2C(C)C)cc(C)n1` [Example 834, 2-(2,6-dimethylpyridin-4-yl)-6-fluoro-3-isopropyl-5-(1-(oxetan-3-yl)piperidin-4-yl)-1H-indole]: the IC50 came out at 4.4 nM at human TLR7 (setting [5]) and 23.8 nM at human TLR8 (setting [6]).
Consider `COCCC(=O)N1CCC(c2ccc3[nH]c(-c4cc(C)nc(C)c4)c(C(C)C)c3c2)CC1` [Example 118, 1-(4-(2-(2,6-dimethylpyridin-4-yl)-3-isopropyl-1H-indol-5-yl)piperidin-1-yl)-3-methoxypropan-1-one], for which the IC50 at human TLR9 (setting [1]) was more than 50000 nM; on human TLR8 (setting [3]), 79.8 nM.
On to `Cc1cc(-c2[nH]c3ccc(C4CCN(C(=O)C5(C)COC5)CC4)cc3c2C(C)C)cc(C)n1` [Example 207, (4-(2-(2,6-dimethylpyridin-4-yl)-3-isopropyl-1H-indol-5-yl)piperidin-1-yl)(3-methyloxetan-3-yl)methanone], for which the figures for the IC50 on human TLR9 (setting [1]) and on human TLR8 (setting [3]) were 47400 nM and 90.4 nM, respectively.
For `Cc1cc(-c2[nH]c3ccc(C4CCN(C(=O)C(C)C)CC4)cc3c2C(C)C)cc(C)n1` [Example 202, 1-(4-(2-(2,6-dimethylpyridin-4-yl)-3-isopropyl-1H-indol-5-yl)piperidin-1-yl)-2-methylpropan-1-one], the IC50 was 39900 nM on human TLR9 (setting [1]) and 327 nM on human TLR8 (setting [3]).
In the case of `Cc1cc(-c2[nH]c3ccc(C4CCN(C(=O)CCn5ccc(C)n5)CC4)cc3c2C(C)C)cc(C)n1` [Example 143, 1-(4-(2-(2,6-dimethylpyridin-4-yl)-3-isopropyl-1H-indol-5-yl)piperidin-1-yl)-3-(3-methyl-1H-pyrazol-1-yl)propan-1-one], the IC50 on human TLR9 (setting [1]) is 25000 nM; at human TLR8 (setting [3]) it was 172 nM.
For the compound `Cc1cc(-c2[nH]c3ccc(C4CCN(C(=O)CC5C(=O)N(C)C(=O)N5C)CC4)cc3c2C(C)C)cc(C)n1` (centres unmarked) [Example 122, 5-(2-(4-(2-(2,6-dimethylpyridin-4-yl)-3-isopropyl-1H-indol-5-yl)piperidin-1-yl)-2-oxoethyl)-1,3-dimethylimidazolidine-2,4-dione], the IC50 on human TLR7 (setting [2]) stood at 6.7 nM; on human TLR8 (setting [3]) it was 44.4 nM.
Turning to `Cc1cc(-c2[nH]c3ccc(C4CCN(C(=O)c5cccnc5)CC4)cc3c2C(C)C)cc(C)n1` [Example 113, (4-(2-(2,6-dimethylpyridin-4-yl)-3-isopropyl-1H-indol-5-yl)piperidin-1-yl)(pyridin-3-yl)methanone], the IC50 against human TLR7 (setting [2]) came out at 5.9 nM; at human TLR8 (setting [3]), 78.6 nM.
`Cc1nccc(-c2[nH]c3ccc(C4CCN(Cc5cnc[nH]5)CC4)cc3c2C(C)C)c1N` [Example 745, 4-(5-(1-((1H-imidazol-5-yl)methyl)piperidin-4-yl)-3-isopropyl-1H-indol-2-yl)-2-methylpyridin-3-amine]: the IC50 on human TLR7 (setting [2]) worked out at 99.9 nM; against human TLR8 (setting [7]), 130 nM.
As for `Cc1cc(-c2[nH]c3ccc(C4CCN(C(=O)[C@@]5(C)CCCN5)CC4)cc3c2C(C)C)cc(C)n1` [Example 192, (R)-(4-(2-(2,6-dimethylpyridin-4-yl)-3-isopropyl-1H-indol-5-yl)piperidin-1-yl)(2-methylpyrrolidin-2-yl)methanone], the IC50 on human TLR9 (setting [1]) amounted to 154 nM; on human TLR8 (setting [3]), 7.2 nM.
For the compound `Cc1cc(-c2[nH]c3ccc(C4CCN(CC(=O)N(C)C5CCOCC5)CC4)cc3c2C(C)C)cc(C)n1` [Example 287, 2-(4-(2-(2,6-dimethylpyridin-4-yl)-3-isopropyl-1H-indol-5-yl)piperidin-1-yl)-N-methyl-N-(tetrahydro-2H-pyran-4-yl)acetamide], the IC50 stood at 328 nM on human TLR9 (setting [8]) and 22 nM against human TLR8 (setting [7]).
For `Cc1cc(-c2[nH]c3ccc(C4CCN(c5cccnc5)CC4)cc3c2C(C)C)ccn1` [Example 847, 3-isopropyl-2-(2-methylpyridin-4-yl)-5-(1-(pyridin-3-yl)piperidin-4-yl)-1H-indole], the IC50 was determined as 61.9 nM on human TLR7 (setting [5]) and 206 nM on human TLR8 (setting [6]).
For `Cc1cc(-c2[nH]c3ccc(C4CCN(C(=O)C[C@H]5CCCN5)CC4)cc3c2C(C)C)cc(C)n1` [Example 193, (R)-1-(4-(2-(2,6-dimethylpyridin-4-yl)-3-isopropyl-1H-indol-5-yl)piperidin-1-yl)-2-(pyrrolidin-2-yl)ethan-1-one], the IC50 at human TLR9 (setting [1]) was found to be 228 nM; on human TLR8 (setting [3]), 14.8 nM.
With `Cc1cc(-c2[nH]c3ccc(C4CCN(Cc5ncn(C)n5)CC4)cc3c2C(C)C)c(F)cn1` [Example 724, 2-(5-fluoro-2-methylpyridin-4-yl)-3-isopropyl-5-(1-((1-methyl-1H-1,2,4-triazol-3-yl)methyl)piperidin-4-yl)-1H-indole], the IC50 was found to be 13.8 nM against human TLR7 (setting [2]) and 9.6 nM at human TLR8 (setting [3]).
As to `COC(=O)c1c(-c2cc(C)nc(C)c2)[nH]c2ccc(C3CCNCC3)cc12` [Example 495, methyl 2-(2,6-dimethylpyridin-4-yl)-5-(piperidin-4-yl)-1H-indole-3-carboxylate], the concentration for half-maximal inhibition (IC50) came to 144 nM at human TLR9 (setting [1]) and 12500 nM on human TLR8 (setting [3]).
As for `Cc1cc(-c2[nH]c3ccc(C4CCN(C(=O)C5CCNC5)CC4)cc3c2C(C)C)cc(C)n1` (centres unmarked) [Example 186, (4-(2-(2,6-dimethylpyridin-4-yl)-3-isopropyl-1H-indol-5-yl)piperidin-1-yl)(pyrrolidin-3-yl) methanone], the IC50 is 516 nM against human TLR9 (setting [8]) and 22.2 nM against human TLR8 (setting [7]).
As to `CCc1c(-c2ccnc(NC)c2)[nH]c2ccc(C3CCN(C4CCN(CC(C)C)CC4)CC3)cc12` [Example 771, 4-(3-ethyl-5-(1′-isobutyl-[1,4′-bipiperidin]-4-yl)-1H-indol-2-yl)-N-methylpyridin-2-amine], the IC50 at human TLR9 (setting [1]) stood at 169 nM; at human TLR7 (setting [2]), 3370 nM.
Take `Cc1c(-c2ccncc2)[nH]c2ccc(C3CCN(C4CCN(C)CC4)CC3)cc12` [Example 842, 3-methyl-5-(1′-methyl-[1,4′-bipiperidin]-4-yl)-2-(pyridin-4-yl)-1H-indole]: the IC50 is 93 nM on human TLR9 (setting [4]) and 388 nM against human TLR7 (setting [5]).
Take `COCCN(C)C(=O)CN1CCC(c2ccc3[nH]c(-c4cc(C)nc(C)c4)c(C(C)C)c3c2)CC1` [Example 254, 2-(4-(2-(2,6-dimethylpyridin-4-yl)-3-isopropyl-1H-indol-5-yl)piperidin-1-yl)-N-(2-methoxyethyl)-N-methylacetamide]: the IC50 on human TLR7 (setting [2]) stood at 9 nM; against human TLR8 (setting [7]) it was 17.6 nM.
For the compound `CC(C)c1c(-c2ccncc2CO)[nH]c2ccc(C3CCNCC3)cc12` [Example 19, (4-(3-isopropyl-5-(piperidin-4-yl)-1H-indol-2-yl)pyridin-3-yl)methanol], the results for the IC50 at human TLR9 (setting [1]) and against human TLR7 (setting [2]) were 1860 nM and 124 nM, respectively.
As for `Cc1cc(-c2[nH]c3ccc(C4CCN(C(=O)C5CC(=O)N(C)C5)CC4)cc3c2C(C)C)ccn1` (centres unmarked) [Example 618, 4-(4-(3-isopropyl-2-(2-methylpyridin-4-yl)-1H-indol-5-yl)piperidine-1-carbonyl)-1-methylpyrrolidin-2-one], the figures for the IC50 at human TLR9 (setting [1]) and on human TLR8 (setting [3]) were more than 50000 nM and 107 nM, respectively.
As to `Cc1cc(-c2[nH]c3ccc(C4CCN(C(=O)CN5CCC(C)CC5)CC4)cc3c2C(C)C)cc(C)n1` [Example 376, 1-(4-(2-(2,6-dimethylpyridin-4-yl)-3-isopropyl-1H-indol-5-yl)piperidin-1-yl)-2-(4-methylpiperidin-1-yl)ethan-1-one], the IC50 amounted to 628 nM on human TLR9 (setting [1]) and 20.9 nM at human TLR8 (setting [3]).
For `COCCC(=O)N1CCC(c2ccc3[nH]c(-c4ccnc(C)c4)c(C(C)C)c3c2)CC1` [Example 571, 1-(4-(3-isopropyl-2-(2-methylpyridin-4-yl)-1H-indol-5-yl)piperidin-1-yl)-3-methoxypropan-1-one], the values for the IC50 at human TLR7 (setting [2]) and on human TLR8 (setting [3]) were 79.3 nM and 102 nM, respectively.
With `CNCCN1CCC(c2ccc3[nH]c(-c4ccnc(OC)c4)c(CC4CC4)c3c2)CC1` [Example 784, 2-(4-(3-(cyclopropylmethyl)-2-(2-methoxypyridin-4-yl)-1H-indol-5-yl)piperidin-1-yl)-N-methylethan-1-amine], the IC50 at human TLR9 (setting [1]) amounted to 685 nM; against human TLR7 (setting [2]), 94 nM.
In the case of `COc1cc(-c2[nH]c3ccc(C4CCNCC4)cc3c2C(C)C)cc(C)n1` [Example 46, 3-isopropyl-2-(2-methoxy-6-methylpyridin-4-yl)-5-(piperidin-4-yl)-1H-indole], the figures for the IC50 at human TLR9 (setting [1]) and against human TLR7 (setting [2]) were 2340 nM and 1.5 nM, respectively.

These data come from patent US10660877B2 (BRISTOL-MYERS SQUIBB COMPANY, priority 2016, dated 2020).
